Patent publication US9303042B2, “Triazolothienopyrimidine compound inhibitors of urea transporters and methods of using inhibitors” (The Regents of the University of California, priority 2012, dated 2016)
Like-named read-outs stand apart in the source and are kept apart here.

Legend:
UT-B = target: T1, UT-B (Mus musculus, UniProt Q8VHL0); assay: Erythrocyte lysis assay of UT-B inhibition; assay type: cell-based; parameters: Screening was performed using mouse erythrocytes, which strongly express UT-B; endogenous in cells; host or cells: erythrocytes in whole blood of wild-type CD1 mice; settings: erythrocyte lysis assay, read-out: IC50
T1 sequence (Q8VHL0 1-384): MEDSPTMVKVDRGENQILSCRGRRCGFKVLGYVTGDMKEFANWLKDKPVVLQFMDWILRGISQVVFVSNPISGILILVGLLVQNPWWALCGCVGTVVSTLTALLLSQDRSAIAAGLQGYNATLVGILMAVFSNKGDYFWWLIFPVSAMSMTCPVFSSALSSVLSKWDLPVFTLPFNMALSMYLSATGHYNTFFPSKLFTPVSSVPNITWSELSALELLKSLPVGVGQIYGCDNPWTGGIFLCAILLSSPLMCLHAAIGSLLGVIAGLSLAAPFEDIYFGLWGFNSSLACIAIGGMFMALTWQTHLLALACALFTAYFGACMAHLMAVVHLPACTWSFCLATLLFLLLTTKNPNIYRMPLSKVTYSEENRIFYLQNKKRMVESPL
Protocol: Screening was performed using mouse erythrocytes, which strongly express UT-B and are highly water permeable because the cells also express aquaporin-1 (AQP1) water channels. The screening method involved assay of erythrocyte lysis in response to a large, outwardly directed gradient of acetamide, a urea analog that is transported efficiently by UT-B. A large, outwardly directed gradient of acetamide causes transient cell swelling, but little cell lysis, because UT-B-facilitated acetamide efflux limits water influx (see FIG. 1A). UT-B inhibition prevents acetamide efflux, allowing unopposed cell swelling and consequent cell lysis, which was recorded by reduced near-infrared light absorption at 710 nm.
Primary screening was done using a collection of 100,000 diverse, drug-like compounds from commercial sources (ChemDiv, San Diego, Calif.; Asinex, Winston-Salem, N.C.). […] Vigorous mixing was achieved by repeated pipetting. Erythrocyte lysis was quantified by absorbance at 710 nm wavelength, made within 5 min after hypo-osmolar shock. […] For analysis of structure-activity relationships >900 commercially available analogs (ChemDiv and Asinex) were tested.

[1] = In vitro metabolic stability in hepatic microsomes; assay type: in vitro ADME, rat; settings: for % Remaining after 10 min incubation with liver microsomes: NADPH, compound 5 μM; for metabolic stability (in words): hepatic microsomes
Protocol: Compounds, each at 5 μM, were incubated for specified times at 37° C. with rat liver microsomes (1 mg protein/ml; Sigma-Aldrich, St. Louis, Mo.) in potassium phosphate buffer (100 mM) containing 1 mM NADPH. The mixture was then chilled on ice, and 0.5 ml of ice-cold ethyl acetate was added.

[2] = Table 1, commercially available analogues

IC50 (UT-B; [2]) | % Remaining after 10 min incubation with liver microsomes [1] | metabolic stability (in words) [1] | IC50 (UT-B) | Structure (SMILES)
4.35 µM | 27% | – | – | COCCCNc1nc2c(S(=O)(=O)c3ccccc3)nnn2c2ccsc12 [Compound 2ab, {3-benzenesulfonyl-thieno[2,3-e][1,2,3]triazolo[1,5-a]pyrimidin-5-yl}-3-methoxypropyl-amine]
1.66 µM | 80% | improved metabolic stability | – | COc1ccc(CNc2nc3c(S(=O)(=O)c4ccc(C)cc4)nnn3c3ccsc23)cc1 [Compound 2ad, [3-(4-methyl-benzenesulfonyl)-thieno[2,3-e][1,2,3]triazolo[1,5-a]pyrimidin-5-yl]-(4-methoxy-benzyl)-amine]
0.733 µM | 86% | improved metabolic stability | – | Cc1ccc(S(=O)(=O)c2nnn3c2nc(NCc2ccc(F)cc2)c2sccc23)cc1 [Compound 2aj, [3-(4-methyl-benzenesulfonyl)-thieno[2,3-e][1,2,3]triazolo[1,5-a]pyrimidin-5-yl]-(4-fluoro-benzyl)-amine]
0.156 µM | <2% | – | – | Cc1ccc(S(=O)(=O)c2nnn3c2nc(NCc2ccco2)c2sccc23)cc1C [Compound 2am, furan-2-ylmethyl-[3-(3,4-dimethyl-benzenesulfonyl)-thieno[2,3-e][1,2,3]triazolo[1,5-a]pyrimidin-5-yl]-amine]
1.71 µM | 6% | – | – | Cc1ccc(S(=O)(=O)c2nnn3c2nc(N2CCOCC2)c2sccc23)cc1C [Compound 2an]
1 µM | 3% | – | – | Cc1ccc(S(=O)(=O)c2nnn3c2nc(NCc2ccccc2)c2sccc23)cc1C [Compound 2ao, [3-(3,4-dimethyl-benzenesulfonyl)-thieno[2,3-e][1,2,3]triazolo[1,5-a]pyrimidin-5-yl]-benzyl-amine]
1.04 µM | 15% | – | – | COc1ccccc1CNc1nc2c(S(=O)(=O)c3ccc(C)c(C)c3)nnn2c2ccsc12 [Compound 2as, [3-(3,4-dimethyl-benzenesulfonyl)-thieno[2,3-e][1,2,3]triazolo[1,5-a]pyrimidin-5-yl]-(2-methoxy-benzyl)-amine]
1.54 µM | 12% | – | – | COc1ccc(CNc2nc3c(S(=O)(=O)c4ccc(C)c(C)c4)nnn3c3ccsc23)cc1 [Compound 2at, [3-(3,4-dimethyl-benzenesulfonyl)-thieno[2,3-e][1,2,3]triazolo[1,5-a]pyrimidin-5-yl]-(4-methoxy-benzyl)-amine]
0.854 µM | 35% | – | – | Cc1ccc(S(=O)(=O)c2nnn3c2nc(NCCC(C)C)c2sccc23)cc1C [Compound 2au]
0.52 µM | 2% | – | – | CCOCCCNc1nc2c(S(=O)(=O)c3ccc(C)c(C)c3)nnn2c2ccsc12 [Compound 2aw, {3-[3,4-dimethyl-benzenesulfonyl]-thieno[2,3-e][1,2,3]triazolo[1,5-a]pyrimidin-5-yl}-3-ethoxylpropyl-amine]
1.76 µM | <2% | – | – | Cc1ccc(S(=O)(=O)c2nnn3c2nc(N2CCCCC2)c2sccc23)cc1C [Compound 2az]
0.582 µM | 83% | improved metabolic stability | – | Cc1ccc(S(=O)(=O)c2nnn3c2nc(NCc2ccc(Cl)cc2)c2sccc23)cc1C [Compound 2bc, [3-(3,4-dimethyl-benzenesulfonyl)-thieno[2,3-e][1,2,3]triazolo[1,5-a]pyrimidin-5-yl]-(4-chloro-benzyl)-amine]
0.037 µM | <2% | – | – | Cc1ccc(S(=O)(=O)c2nnn3c2nc(NCc2cccs2)c2sccc23)cc1C [Compound 2bd, {3-[3,4-dimethyl-benzenesulfonyl]-thieno[2,3-e][1,2,3]triazolo[1,5-a]pyrimidin-5-yl}-thiophen-2-ylmethyl-amine]
1.87 µM | 21% | – | – | O=S(=O)(c1ccc(Cl)cc1)c1nnn2c1nc(NCc1ccco1)c1sccc12 [Compound 2bf, furan-2-ylmethyl-[3-(4-chloro-benzenesulfonyl)-thieno[2,3-e][1,2,3]triazolo[1,5-a]pyrimidin-5-yl]-amine]
1.27 µM | 74% | – | – | CCCCNc1nc2c(S(=O)(=O)c3ccc(Cl)cc3)nnn2c2ccsc12 [Compound 2bg]
1.91 µM | 63% | – | – | COCCNc1nc2c(S(=O)(=O)c3ccc(Cl)cc3)nnn2c2ccsc12 [Compound 2bh, {3-[4-chloro-benzenesulfonyl]-thieno[2,3-e][1,2,3]triazolo[1,5-a]pyrimidin-5-yl}-2-methoxyethyl-amine]
0.214 µM | 52% | – | – | O=S(=O)(c1ccc(Cl)cc1)c1nnn2c1nc(NCc1cccs1)c1sccc12 [Compound 2bi, {3-[4-chloro-benzenesulfonyl]-thieno[2,3-e][1,2,3]triazolo[1,5-a]pyrimidin-5-yl}-thiophen-2-ylmethyl-amine]
0.191 µM | <2% | – | – | CCCCNc1nc2c(S(=O)(=O)c3ccc(C(C)C)cc3)nnn2c2ccsc12 [Compound 2bm]
0.711 µM | 14% | – | – | COCCNc1nc2c(S(=O)(=O)c3ccc(C(C)C)cc3)nnn2c2ccsc12 [Compound 2bo, {3-[4-isopropyl-benzenesulfonyl]-thieno[2,3-e][1,2,3]triazolo[1,5-a]pyrimidin-5-yl}-2-methoxyethyl-amine]
– | 12% | – | 0.239 µM | CCc1ccc(S(=O)(=O)c2nnn3c2nc(NCc2ccco2)c2sccc23)cc1 [Compound 2bp, furan-2-ylmethyl-[3-(4-ethyl-benzenesulfonyl)-thieno[2,3-e][1,2,3]triazolo[1,5-a]pyrimidin-5-yl]-amine]
0.664 µM | 44% | – | – | CCc1ccc(S(=O)(=O)c2nnn3c2nc(NCc2ccccc2)c2sccc23)cc1 [Compound 2br, [3-(4-ethyl-benzenesulfonyl)-thieno[2,3-e][1,2,3]triazolo[1,5-a]pyrimidin-5-yl]-benzyl-amine]
1.77 µM | 6% | – | – | CCc1ccc(S(=O)(=O)c2nnn3c2nc(N(CC)CC)c2sccc23)cc1 [Compound 2bs]
0.374 µM | 81% | improved metabolic stability | – | CCc1ccc(S(=O)(=O)c2nnn3c2nc(NCc2ccc(Cl)cc2)c2sccc23)cc1 [Compound 2bt, [3-(4-ethyl-benzenesulfonyl)-thieno[2,3-e][1,2,3]triazolo[1,5-a]pyrimidin-5-yl]-(4-chloro-benzyl)-amine]
0.891 µM | 26% | – | – | CCc1ccc(S(=O)(=O)c2nnn3c2nc(NCC2CCCO2)c2sccc23)cc1 (stereo not shown) [Compound 2bu, tetrahydrofuran-2-ylmethyl-[3-(4-ethyl-benzenesulfonyl)-thieno[2,3-e][1,2,3]triazolo[1,5-a]pyrimidin-5-yl]-amine]
0.662 µM | 59% | – | – | CCc1ccc(S(=O)(=O)c2nnn3c2nc(NCCC(C)C)c2sccc23)cc1 [Compound 2bv]
0.585 µM | 34% | – | – | CCc1ccc(S(=O)(=O)c2nnn3c2nc(NC(C)c2ccccc2)c2sccc23)cc1 (stereo not shown) [Compound 2bw, [3-(4-ethyl-benzenesulfonyl)-thieno[2,3-e][1,2,3]triazolo[1,5-a]pyrimidin-5-yl]-(1-phenyl-1-methyl)methyl-amine]
0.291 µM | <2% | – | – | CCc1ccc(S(=O)(=O)c2nnn3c2nc(NCc2cccc(OC)c2)c2sccc23)cc1 [Compound 2bx, [3-(4-ethyl-benzenesulfonyl)-thieno[2,3-e][1,2,3]triazolo[1,5-a]pyrimidin-5-yl]-(3-methoxy-benzyl)-amine]
0.334 µM | <2% | – | – | CCc1ccc(S(=O)(=O)c2nnn3c2nc(NCCOC)c2sccc23)cc1 [Compound 2by, {3-[4-ethyl-benzenesulfonyl]-thieno[2,3-e][1,2,3]triazolo[1,5-a]pyrimidin-5-yl}-2-methoxyethyl-amine]
2.08 µM | – | – | – | O=S(=O)(c1cccc(Cl)c1)c1nnn2c1nc(NCc1cccs1)c1sccc12 [Compound 2cw, {3-[3-chloro-benzenesulfonyl]-thieno[2,3-e][1,2,3]triazolo[1,5-a]pyrimidin-5-yl}-thiophen-2-ylmethyl-amine]
